According to patent US20090325952A1, “PYRAZOLO[3,4-B]PYRIDINE COMPOUNDS, AND THEIR USE AS PDE4 INHIBITORS” (Glaxo Group Limited, priority 2006, published 2009):
Structures can show the parent of a compound that is named as a salt.

molecular target: PDE4D (human recombinant) (Homo sapiens, UniProt Q08499); test: Inhibition of PDE4D activity (FP assay); format: biochemical; conditions: FP assay or generally similar assay; ±about 0.5 or more
Excerpt: Human recombinant PDE4D (HSPDE4D3A) is disclosed in P. A. Baecker et al., “Isolation of a cDNA encoding a human rolipram-sensitive cyclic AMP phoshodiesterase (PDE IVD)”, Gene, 1994, 138, 253-256.
The ability of compounds to inhibit catalytic activity at PDE4B (human recombinant) or PDE4D (human recombinant) can optionally be determined by IMAP Fluorescence Polarisation (FP) assay (IMAP Explorer kit, available from Molecular Devices Corporation, Sunnydale, Calif., USA; Molecular Devices code: R8062) in 384-well format.
The IMAP FP assay is able to measure PDE activity in an homogenous, non-radioactive assay format. The FP assay uses the ability of immobilised trivalent metal cations, coated onto nanoparticles (tiny beads), to bind the phosphate group of Fl-AMP that is produced on the hydrolysis of fluorescein-labelled (Fl) cyclic adenosine mono-phosphate (Fl-cAMP) to the non-cyclic Fl-AMP form. […] Binding of Fl-AMP product to the beads (coated with the immobilised trivalent cations) slows the rotation of the bound Fl-AMP and leads to an increase in the fluorescence polarisation ratio of parallel to perpendicular light. Inhibition of the PDE reduces/inhibits this signal increase.
Test compounds (small volume, e.g. ca. 0.5 to 1 microlitres (ul), suitably ca. 0.5 ul, of solution in DMSO) are preincubated at ambient temperature (room temperature, e.g. 19-23° C.) in black 384-well microtitre plates (supplier: NUNC, code 262260) with PDE enzyme in 10 mM Tris-HCl buffer pH 7.2, 10 mM MgCl2, 0.1% (w/v) bovine serum albumin, and 0.05% NaN3 for 10-30 minutes. The enzyme level is set by experimentation so that reaction is linear throughout the incubation. Fluorescein adenosine 3′,5′-cyclic phosphate (from Molecular Devices Corporation, Molecular Devices code: R7091) is added to give about 40 nM final concentration (final assay volume usually ca. 20-40 ul, suitably ca. 20 ul). Plates are mixed on an orbital shaker for 10 seconds and incubated at ambient temperature for 40 minutes. IMAP binding reagent (as described above, from Molecular Devices Corporation, Molecular Devices code: R7207) is added (60 ul of a 1 in 400 dilution in binding buffer of the kit stock solution) to terminate the assay. Plates are allowed to stand at ambient temperature for 1 hour. The Fluorescence Polarisation (FP) ratio of parallel to perpendicular light is measured using an Analyst™ plate reader (from Molecular Devices Corporation). For inhibition curves, 10 concentrations (e.g. 1.5 nM-30 uM) of each compound are assayed. Curves are analysed using ActivityBase and XLfit (ID Business Solutions Limited, 2 Ocean Court, Surrey Research Park, Guildford, Surrey GU2 7QB, United Kingdom). Results are expressed as pIC50 values.
The PDE4D pIC50 values of some compounds or salts of the invention are as follows, as measured using an FP assay or a generally similar assay: • the salt of Example 1A1: PDE4D pIC50=about 10.7 (about 0.5 or more) (n=8). • the compound of Example 1B: PDE4D pIC50=about 10.4 (about 0.5 or more) (n=2). • the salt of Example 9: PDE4D pIC50>about 11.0 (± about 0.5 or more) (n=1). • the salt of Example 19: PDE4D pIC50=about 10.7 (±about 0.5 or more) (n=2). • the salt of Example 26: PDE4D pIC50=about 9.4 (±about 0.5 or more) (n=2). • the compound of Example 23A: PDE4D pIC50=about 10.5 (± about 0.5 or more) (n=1). Emesis: Some known PDE4 inhibitors can cause emesis and/or nausea to greater or lesser extents, especially after systemic exposure e.g. after oral administration (e.g. see Z. Huang et al., Current Opinion in Chemical Biology, 2001, 5: 432-438, see especially pages 433-434 and refs cited therein). Therefore, it would be preferable, but not essential, if a PDE4 inhibitory compound or salt of the invention were to cause only limited or manageable emetic side-effects, e.g. after inhaled or parenteral or external-topical administration. […]

PDE4D (human recombinant), sequence (Q08499 1-673 isoform Q08499-2): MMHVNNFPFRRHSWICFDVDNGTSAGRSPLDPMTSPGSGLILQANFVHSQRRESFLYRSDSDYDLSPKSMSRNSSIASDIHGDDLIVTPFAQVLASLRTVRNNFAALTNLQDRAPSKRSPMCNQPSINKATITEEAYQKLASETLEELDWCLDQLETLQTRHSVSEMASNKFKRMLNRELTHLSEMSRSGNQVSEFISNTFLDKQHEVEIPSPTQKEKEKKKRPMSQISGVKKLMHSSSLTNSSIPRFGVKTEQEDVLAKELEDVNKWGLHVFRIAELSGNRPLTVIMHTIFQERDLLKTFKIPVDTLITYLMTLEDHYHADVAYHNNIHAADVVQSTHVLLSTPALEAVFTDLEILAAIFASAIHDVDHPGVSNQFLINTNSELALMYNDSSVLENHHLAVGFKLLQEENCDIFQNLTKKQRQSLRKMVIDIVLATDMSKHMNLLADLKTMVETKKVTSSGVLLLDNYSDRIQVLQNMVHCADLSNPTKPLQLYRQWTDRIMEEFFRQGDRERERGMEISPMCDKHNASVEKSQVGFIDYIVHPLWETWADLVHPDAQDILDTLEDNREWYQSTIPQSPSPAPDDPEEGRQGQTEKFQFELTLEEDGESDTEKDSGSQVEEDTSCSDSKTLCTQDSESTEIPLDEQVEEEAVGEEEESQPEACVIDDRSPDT

| Structure (SMILES) | PDE4D pIC50 |
| --- | --- |
| CCc1nc2c(cnn2CC)c(NC2CCN(C(N)=O)CC2)c1CNC(=O)c1ccc(NC(=O)CCCCCCCN(C)CCO)cc1.O=C(O)C(F)(F)F [Example 9, 4-({1,6-diethyl-5-[({[4-({8-[(2-hydroxyethyl)(methyl)amino]octanoyl}amino)phenyl]carbonyl}amino)methyl]-1H-pyrazolo[3,4-b]pyridin-4-yl}amino)-1-piperidinecarboxamide trifluoroacetate (salt)] | > 11.0 |

same assay, conditions: FP assay or generally similar assay; ±about 0.5 or more; read-out: PDE4D pIC50 (converted)

| Structure (SMILES) | IC50 |
| --- | --- |
| CCc1nc2c(cnn2CC)c(NC2CCOCC2)c1CNC(=O)c1ccc(NC(=O)CCCCCCCN(C)CCO)cc1 [Example 1A1, N-{[1,6-Diethyl-4-(tetrahydro-2H-pyran-4-ylamino)-1H-pyrazolo[3,4-b]pyridin-5-yl]methyl}-4-({8-[(2-hydroxyethyl)(methyl)amino]octanoyl}amino)benzamide dihydrochloride] | ~0.02 nM |
| CCc1nc2c(cnn2CC)c(NC2CCOCC2)c1CNC(=O)c1ccc(NC(=O)CCCCCCCN(C)CCO)cc1 [Example 1B, N-{[1,6-diethyl-4-(tetrahydro-2H-pyran-4-ylamino)-1H-pyrazolo[3,4-b]pyridin-5-yl]methyl}-4-({8-[(2-hydroxyethyl)(methyl)amino]octanoyl}amino)benzamide] | ~0.0398 nM |
| CCc1nc2c(cnn2CC)c(NC2CCOCC2)c1CNC(=O)c1ccc(CCCCOCCCCN(C)CCO)cc1 [Example 19, formate salt of N-{[1,6-diethyl-4-(tetrahydro-2H-pyran-4-ylamino)-1H-pyrazolo[3,4-b]pyridin-5-yl]methyl}-4-[4-({4-[(2-hydroxyethyl)(methyl)amino]butyl}oxy)butyl]benzamide] | ~0.02 nM |
| CCc1nc2c(cnn2CC)c(NC2CCN(C(N)=O)CC2)c1CNC(=O)c1ccc(CCCCOCCCCN2CCOCC2)cc1 [Example 23A, 4-({1,6-diethyl-5-[({[4-(4-{[4-(4-morpholinyl)butyl]oxy}butyl)phenyl]carbonyl}amino)methyl]-1H-pyrazolo[3,4-b]pyridin-4-yl}amino)-1-piperidinecarboxamide] | ~0.0316 nM |
| CCn1ncc2c(NC3CCOCC3)c(CNC(=O)c3ccc(NC(=O)CCCCCCCN(C)CCO)cc3)cnc21 [Example 26, Formate salt of N-{[1-ethyl-4-(tetrahydro-2H-pyran-4-ylamino)-1H-pyrazolo[3,4-b]pyridin-5-yl]methyl}-4-({8-[(2-hydroxyethyl)(methyl)amino]octanoyl}amino)benzamide] | ~0.398 nM |
